This is an account of results in patent US7790700B2, “Derivatives of partially desulphated glycosaminoglycans endowed with antiangiogenic activity and devoid of anticoagulating effect” (Sigma-Tau Industrie Farmaceutiche Riunite S.p.A., priority 2000, dated 2010).

Data set [1] has as its system CAM. Particulars: CAM test in the presence of corticosteroids, Lapierre et al. Table III; cited from earlier work.
For data set [2], the system named is chick embryo chorioallantoic membrane. Description: Angiostatic activity on CAM model (gelatin sponge). The format is in vivo. On the procedure: For the study of angiogenesis the model used was the chick embryo chorioallantoic membrane model (Ribatti e al. Int. J. Dev. Biol., 40, 1189 (1996)).
300 embryonated hens' eggs were incubated at 37° C. in constant humidity conditions. On the 3rd day of incubation, after aspirating 2-3 ml of albumen from the acute pole of the egg so as to detach the CAM from the shell, a window was cut with scissors in the shell. The vessels underlying the CAM were thus exposed. The window was closed with a transparent glass panel and the eggs were put back into the incubator. On the 8th day of incubation, in sterile conditions, the CAMs were treated according to the protocol described below using a technique developed recently (Ribatti et al. J. Vasc. Res. 34, 455 (1997)), which involves the use of sterile gelatin sponges measuring 1 mm^2 in size. […] The sponges were first rested on the surface of the CAM, and then 3 μl of solution of the test substance were pipetted onto the surface of the sponge. The CAMs were examined daily using a Zeiss SR stereomicroscope equipped with a photographic device. The experiments were discontinued on the 12th day of incubation, when an overall assessment of the angiogenic activity of the molecules was carried out, expressed as percentage inhibition in relation to the number of experiments initiated and completed (Table 9). In addition, for compound ST1514, assayed at the concentration of 100 μg/embryo, a macroscopic quantitative evaluation of the angiostatic activity was also carried out according to the technique proposed by Brooks et al. (Science, 264, 569, (1994)), counting the number of vessels surrounding the sponge. The number of vessels was compared with that of the control sponges treated with PBS (vehicle of the test compound) and with FGF-2 (positive control).

The subject of data set [3] is L6-WT1 cells (rat myoblasts transfected with FGFR-1). The data set can be described thus: Inhibition of DNA synthesis in L6 cells transfected with FGFR-1. The class given is cell-based. Particulars: test compound 100 μ/ml. On the procedure:
L6-WT1 cells (rat myoblasts transfected with FGFR-1) were seeded at a density of 25,000 cells/cm^2 in 48-well plates in DMEM+ 10% FCS. After 24 hours the cells were washed with serum-free medium and incubated for 48 hours with DMEM+ 0.5% FCS. The cells were then incubated for 16 hours with FGF-2 at the concentrations of 15 and 30 ng/ml in the presence or absence of the test compounds (all at 100 μ/ml). At the end of the incubation 3H-thymidine (0.25 μCi/well) was added without changing the medium. After 6 hours, precipitable TCA was measured. Each experimental point is the mean of 3 determinations.

Data set [4] deals with BAEC cells. Description: Test of cell proliferation in BAEC. Particulars: 30 ng/ml FGF-2, 3 days, crystal-violet. The format is cell-based, bovine. As for the experimental part:
BAEC cells at the 7th pass were seeded at a density of 2,500 cells/cm^2 in 96-well in EBM medium without bovine brain extract and hEGF. To this medium were added 30 ng/ml of FGF-2 and each of the test compounds at 5 concentrations ranging from 10 ng/ml to 100 μg/ml. After 3 days the cells were fixed and stained with crystal-violet and the optical density was determined by means of an ELISA microplate reader. Each experimental point was done in quadruplicate and the ID50 was calculated.

The conditions of data set [5]: background table, structure/antimetastatic activity; cited from earlier work.
The test system of data set [6] is Endothelial Cell. Description: Endothelial cell proliferation (Table 11). Particulars: Table 11, endothelial cell proliferation. The class given is cell-based.
For data set [7], the system named is foetal BAEC GM 7373. Description: Test of cell proliferation in foetal BAEC GM 7373. The class given is cell-based, bovine. Particulars: GM7373, 10 ng/ml FGF-2, cell count. On the procedure:
GM7373 cells were seeded at a density of 70,000 cells/cm^2 in 96-well plates in MEM+ 10% FCS medium. After 24 hours, the cells were washed with serum-free medium and treated with 10 ng/ml of FGF-2 in medium containing 0.4% FCS. After 8 hours, the test compounds were added to the medium at 5 concentrations ranging from 10 ng/ml to 100 μg/ml. After a further 16 hours, the cells were trypsinised and counted in a Burker chamber. The ID50 was calculated for each compound and the results are the means of 2 experiments in triplicate.

The target in data set [8] is T1, FGFR/FGF2/HSPG ternary complex (Homo sapiens, UniProt P09038).
T1 construct: FGFR-1 made by transfected HSPG-deficient CHO 745/flg cells; HSPGs on fixed CHO-K1 cells
T1 sequence (P09038 143-288, one chain of several): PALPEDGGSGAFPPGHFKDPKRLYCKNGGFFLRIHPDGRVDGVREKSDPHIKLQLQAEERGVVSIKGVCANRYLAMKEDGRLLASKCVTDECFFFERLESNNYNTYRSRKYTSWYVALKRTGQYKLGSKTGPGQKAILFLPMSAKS
The data set can be described thus: Inhibition of FGF2-mediated intercellular adhesion of CHO-K1 and CHO-745flg cells. The class given is cell-based, Chinese hamsters. An excerpt: To this end an in-vitro model was designed capable of assessing the interference of the various different heparin derivatives with bFGF binding to its own receptor.
These latter cells were stably transfected with cDNA for green fluorescent protein and for this reason could be observed under the fluorescence microscope with a combination of filters for the detection of green emission. In brief, the technique is based on the possibility that the two types of cells may interact (form stable bonds) only if FGF is added to the two cell types. In fact, in this case, the heparan sulphates of the CHO-745flg cells will bind to FGF, which in turn will bind to the CHO-K1 cells, establishing a bridge. The binding that occurs is detectable as a result of the green fluorescence emitted by the CHO-745flg cells.
CHO-K1 cells were seeded at a density of 90,000 cells/cm^2 in 24-well plates. After 24 hours the cells were fixed in 3% glutaraldehyde in PBS for 2 hours at 4° C. and washed with 0.1 M glycine/PBS. On the fixed monolayers CHO 745/flg cells, transfected with FGFR-1, at a density of 50,000 cells/cm^2 in DMEM containing 10 mM EDTA, 30 ng/ml FGF-2 and increasing doses of the test compounds. After 2 hours' incubation at 37° C., the adhering cells were counted under the inverted microscope. The results were expressed as percentage of the number of cells adhering compared to those measured in the absence of the test compounds.

The nature of data set [9]: Evaluation of heparin toxicity in Balb/c mice. The format is in vivo. Particulars: q2dx5. On the procedure:
20 6-week-old female Balb/c mice weighing 20 g (Harlan), divided into groups by casual randomisation, were treated with heparin sodium, as a reference, and with the compound according to the present invention called ST1514. The treatment schedule was of the q2dx5 type, i.e. 5 total administrations at intervals of 2 days, administering 200 μl/mouse of 50 mg/kg/10 ml and 25 mg/kg/10 ml solutions subcutaneously.
48 hours after the last administration of the test substances a blood sample is taken for full blood count and haematological analysis.
Blood sampling: the mice are placed in a hermetically sealed box, into which is insufflated CO2 in an amount sufficient to stun the animal. Blood is then taken from the retro-orbital plexus of each animal (approximately 1 ml of blood/mouse) which is distributed in amounts of 0.4 ml of blood/mouse in Eppendorf test tubes containing 20 μl of Vister heparin (5000 U/ml) for carrying out the full blood count and haematological analysis; and the same amount of blood is distributed in other Eppendorf test tubes containing 50 μl of 3.8% sodium citrate in order to perform prothrombin time determinations. After taking the blood sample, each animal is sacrificed by cervical dislocation.
Full blood count: the appliance (Cell Analyzer 580 A, DELCON) is used according to the standard procedure described in the operating manual. The blood sample (25 μl) is taken by the dilutor and brought up to a volume of 10 ml (dil. 1:400) with isotonic solution (PLTA saline, DELCON). From this solution (called solution A), the dilutor automatically takes a sample of 100 μl and brings it up to a volume of 10 ml (dil. 1:100), thus obtaining solution B. To solution A are added 3 drops of Emosol (DELCON) for lysis of the red blood cells. This solution is used for the WBC reading. Solution B, on the other hand, is used for the RBC and platelet (PLT) readings. Each sample is read in duplicate.
None of the study treatment groups presents significant differences in the numbers of white blood cells as compared to the control group.

Setting [10] is: 50 mg/kg and 25 mg/kg subcutaneously.

Consider 2-O-desulfated heparin, for which the “antiangiogenic activity relative to heparin (in words)” value in data set [1] is listed as “partly maintained the antiangiogenic activity of heparin”.

In the case of “FGF-2: basic fibroblast growth factor, positive control with potent angiogenic activity on the CAM”, the “N. vessels at sponge/CAM interface” value in [2] (1 μg/embryo, positive control, macroscopic quantitative evaluation (Brooks)) is on record as 50 + 4.

On to Heparin, for which the results for the “Incorporation of 3H-thymidine (% vs. control)” value in [3] (FGF-2 15 ng/ml) and in [3] (FGF-2 30 ng/ml) were 50 % vs. control and 74 % vs. control, respectively. Besides, the “Inhibition (ID50) of cell proliferation” value in [4] was found to be 100 µg/mL; in [7] it was 2 µg/mL. For the same substance, the “% inhibition (antimetastatic activity)” value in [5] is listed as 97%. In addition, the “Cell Prolif. (ID50, ng/mL)” value in data set [6] is recorded as 2 000 ng/mL. For the same substance, in [2] (100 μg/embryo), the “CAM (% inhibition)” value worked out at 0%. In addition, the “angiostatic activity on CAM (in words)” value in [2] (remark below Tables 9 and 10) is given as “no activity”. In addition, in data set [8] (30 ng/ml FGF-2, 2 hours at 37° C., 6 concentrations 1 ng/ml to 100 μg/ml), the “Inhibition (ID50) of intercellular adhesion” value turned out to be 100. Besides, the “Cell-Cell Adh. (ID50, ng/mL)” value in [8] (Table 11, FGF2-mediated cell-cell adhesion) worked out at 100 ng/mL. In data set [8] (text b166), the “ID50, FGF2-mediated cell-cell adhesion test” value amounted to 0.1 µg/mL.

heparin sodium: the “platelets compared to the control group” value in data set [9] (25 mg/kg subcutaneously) is “significant platelet deficiency”. In data set [9] (setting [10]), the “haematoma at the inoculum site” value is reported as “marked haematoma at the inoculum site” and the liver at autopsy entry was “livers with abnormal characteristics”. Further, the “red blood cells compared to the control group” value in data set [9] (50 mg/kg and 25 mg/kg subcutaneously, 48 hours after last administration) is “reduction in red blood cells”.
